Experimental data from paper PMC9787607, “A Novel Protocol for the Synthesis of 1,2,4-Oxadiazoles Active against Trypanosomatids and Drug-Resistant Leukemia Cell Lines” (Tropical Medicine and Infectious Disease, 2022).

Columns and labels:
[1] = tested on: L. amazonensis amastigotes; assay: Anti-L. amazonensis amastigote assessment in RAW 264.7 macrophages; type: cell-based, Leishmania amazonensis; conditions: for EC50: Leishmania amazonensis, RAW264.7, in RAW 264.7, 48 h, read-out: EC50 L. amazonensis intracellular amastigotes; for S.I. (selectivity index): host cell/parasite EC50 ratio, RAW/L. amazonensis
Description: RAW 264.7 cells were seeded in a 96-well microplate (2.0 × 10^4 cells per well) in complete DMEM with 5% FBS and incubated for 3 h at 37 °C in 5% CO2 for cell adhesion. The medium was renewed, and L. amazonensis promastigotes (3.0 × 10^5 parasites per well) were added. After 24 h of incubation at 37 °C in 5% CO2, the cell monolayer was washed with PBS to remove noninternalized parasites, the medium was renewed, and compounds were added at a range of concentrations in triplicate (100–1 μM). Untreated infected cells and noninfected RAW 264.7 cells were used as negative and positive controls, respectively. Vehicle control containing DMEM and 0.3% DMSO was maintained for comparison. After incubation for 48 h at 37 °C in 5% CO2, the medium was removed, and a solution containing 0.02% SDS in PBS (20 µL per well) was added. Macrophage lysis and amastigote release were accompanied under an inverted microscope for 10–15 min. SIM with 12.5% SFB (80 µL per well) was added, parasites were allowed to differentiate into promastigotes for 48 h at 27 °C, and an MTT salt solution in PBS was added (3.0 mM, 20 µL per well). After incubation for 2 h at 27 °C, the MTT formazan was dissolved by adding 120 µL of solubilizing buffer (50% isopropanol, 40% acetate buffer pH 5.4, 10% Triton X). Absorbance was measured using a microplate reader at 570 nm.
(§1) The percent cell or parasite viability was calculated by the formula: % viability = [(A − P)/(N − P)] × 100, A = absorbance of specific well, P = positive control, N = negative control. Determination of half-maximal effective concentrations (EC50), calculated by logarithmic regression, and significance analysis (p < 0.05), using ANOVA and Dunnett’s test, by GraphPad Prism 7.0 software. The results are expressed as the mean and standard deviation (SD) of three independent experiments.

[2] = tested on: drug-sensitive and drug-resistant chronic myeloid leukemia cell lines (K562, Lucena-1, FEPS); assay: MTT cytotoxicity to CML cell lines, statements over all lines; type: cell-based; conditions: Homo sapiens, K562-Lucena 1, statement over K562, Lucena-1 and FEPS; read-out: EC50 against CML cell lines
Description: (§2) The CML cell lines K562, Lucena-1 (K562/VCR), and FEPS (K562/DNR) were cultured in RPMI-1640 medium supplemented with 25 mM HEPES and 2 g L^−1 sodium bicarbonate adjusted to pH 7.4 with NaOH, 100 U penicillin and […] streptomycin. All media were supplemented with 10% FBS. Dr. Vivian M. Rumjanek (Instituto de Bioquímica Médica, UFRJ, Brazil) kindly donated Lucena-1 and FEPS cells. Briefly, K562 cells were exposed to increasing concentrations of the chemotherapeutic drugs vincristine sulfate (VCR) and daunorubicin hydrochloride (DNR) (both from Sigma-Aldrich), as described previously. Lucena-1 (K562/VCR) and FEPS (K562/DNR) cells were cultured in the presence of either 60 nM VCR or 500 nM DNR to maintain the MDR phenotypes. For subcultures, cells were harvested every three days followed by washing with cold FBS, and a final concentration of 2 × 10^4 cells mL^−1 was maintained at 37 °C in 5% CO2.
(§3) Cell viability was determined by the 3-(4,5-dimethylthiazol-2-yl)-2,5-diphenyltetrazolium (MTT) colorimetric assay. CML cells (2 × 10^4 cells·mL^−1) were incubated for 72 h at 37 °C, followed by treatment with compounds at a range of concentrations (100–1 μM). Negative controls were prepared with 0.5% DMSO. An MTT salt solution was added to each well to a final concentration of 0.5 g·L^−1, and plates were incubated at 37 °C in 5% CO2 for 3 h. After centrifugation, 200 μL DMSO was added to dissolve the dark-blue formazan crystals formed by MTT reduction. Absorbance was measured on a microplate reader at 570 nm, which is directly proportional to formazan contents and indicative of living cells.

K562 = assay: MTT cytotoxicity to CML cell line K562; type: cell-based; conditions: Homo sapiens, 72 h
Description: as §2, §3, §1

[3] = Cytotoxicity to LLC-MK2 host cells (MTT); type: cell-based; conditions: rhesus monkey, LLC-MK2 cells (kidney fibroblasts); for viability at 120 h, 50 µM: screening at 50 μM
Description: (§4) LLC-MK2 kidney fibroblasts (ATCC) and RAW 264.7 macrophages (ATCC) were cultivated in culture flasks in complete DMEM with 5% FBS at 37 °C in 5% CO2. The LLC-MK2 cell monolayer was detached by treatment with trypsin-EDTA 0.05% for 5 min at 37 °C. The RAW cell monolayer was detached mechanically. In both cases, the cells were centrifuged at 480× g for 6 min and resuspended in complete DMEM with 5% FBS, and the cell density was determined by counting with trypan-blue dye exclusion on Neubauer chambers before use.
(§5) LLC-MK2 cells were seeded in a 96-well microplate (1.0 × 10^4 cells per well) in complete DMEM with 5% FBS (120 µL per well). After incubation for 24 h at 37 °C in 5% CO2, the medium was renewed, and compounds were added at a range of concentrations in triplicate (50 μM or 100–1 μM). Untreated cells and cells treated with DMEM and 10% DMSO were used as negative and positive controls, respectively. Vehicle control containing DMEM and 0.3% DMSO was maintained for comparison. After incubation for 120 h at 37 °C in 5% CO2, the medium was renewed, and MTT salt solution in PBS was added (3.0 mM, 20 µL per well). After incubation for 2 h at 37 °C in 5% CO2, the supernatant was removed, and MTT formazan was dissolved in DMSO (150 µL per well). Absorbance was measured using a microplate reader at 570 nm.
as §1

LLC-MK2 cells = assay: Cytotoxicity to LLC-MK2 host cells (MTT); type: cell-based; conditions: Macaca mulatta, LLC-MK2; 120 h, MTT
Description: as §4, §5, §1

FEPS (K562/DNR) = assay: MTT cytotoxicity to MDR CML cell line FEPS; type: cell-based, human; conditions: for RR (relative resistance) FEPS: (EC50 MDR cells)/(EC50 parental cells), FEPS/K562; for EC50: Homo sapiens, K562, 72 h, MTT
Method in brief: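 K562 and its MDR sublines Lucena-1 (maintained in 60 nM VCR) and FEPS (500 nM DNR) seeded at 2 × 10^4 cells/mL in RPMI-1640 with 10% FBS, treated with compounds at 1–100 μM (0.5% DMSO controls). MTT 0.5 g/L for 3 h, A570 read; EC50 by logarithmic regression, three independent experiments.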

[4] = Cytotoxicity to BALB/c mouse total splenocytes (MTT); type: cell-based; conditions: male; for viability at 48 h, 100 µM / viability at 48 h, 0.4 µM / viability at 48 h, 1 µM / viability at 48 h, 2.6 µM / viability at 48 h, 6.4 µM / viability at 48 h, 16 µM / viability at 48 h, 40 µM: total splenocytes (primary); for EC50 at 48 h: primary total splenocytes, MTT, read-out: EC50 murine splenocytes
Description: BALB/c mouse total splenocytes were harvested from male mice between 6–8 weeks old. After euthanasia, the spleens were removed and macerated in DMEM. After centrifugation, the cells were treated with hemolytic ACK buffer at 37 °C for 5 min. […] After incubation for 48 h at 37 °C in 5% CO2, cell viability was determined after the addition of 20 µL per well of a solution containing MTT salt (3.0 mM) and phenazine metasulphate (0.72 mM). After further incubation for 1 h at 37 °C, the medium was removed, and DMSO was added to dissolve the dark-blue formazan crystals formed by MTT reduction. Absorbance was measured on a microplate reader at 570 nm.
as §1

[5] = 100 μM, 48 h, compared to the untreated control (Table S1)
[6] = Table S2 dose-dependent, 100 µM

Compound | EC50 [1] | S.I. (selectivity index) [1] | EC50 [2] | EC50 (K562) | viability at 120 h, 50 µM [3] | EC50 (LLC-MK2 cells) | RR (relative resistance) FEPS (FEPS (K562/DNR)) | EC50 (FEPS (K562/DNR)) | viability at 48 h, 100 µM [4, 5] | lowest concentration with significant amastigote growth inhibition compared with host cell toxicity ([1]; L. amazonensis vs RAW 264.7, p < 0.05) | viability at 120 h, 1 µM ([3]; host cells at 1.0 μM, read-out: host cell viability) | EC50 at 48 h ([4]; 48 h) | viability at 48 h, 0.4 µM ([4]; Table S2 dose-dependent) | viability at 48 h, 1 µM ([4]; Table S2 dose-dependent) | viability at 48 h, 2.6 µM ([4]; Table S2 dose-dependent) | viability at 48 h, 6.4 µM ([4]; Table S2 dose-dependent) | viability at 48 h, 16 µM ([4]; Table S2 dose-dependent) | viability at 48 h, 40 µM ([4]; Table S2 dose-dependent) | viability at 48 h, 100 µM [4, 6]
COc1cc(/C=C/c2nc(-c3ccccc3)no2)cc(OC)c1OC [Compound 12, (E)-3-phenyl-5-[2-(3,4,5-trimethoxyphenyl)vinyl]-1,2,4-oxadiazole] | 50.1 ± 16.4 µM | >2.0 | < 20 µM | 18 ± 0.9 µM | 88.2 ± 5.2% | > 100 µM | 1.42 | 25.5 ± 4.9 µM | 72.1 ± 6.5% | – | – | – | – | – | – | – | – | – | –
COc1cc(/C=C/c2nc(-c3cc(OC)c(OC)c(OC)c3)no2)cc(OC)c1OC [Compound 23, (E)-3-(3,4,5-trimethoxyphenyl)-5-[2-(3,4,5-trimethoxyphenyl)-vinyl]-1,2,4-oxadiazole] | 13.5 ± 3.6 µM | >7.4 | – | 13.2 ± 2.9 µM | 64.1 ± 4.4% | 78 ± 4.7 µM | 0.42 | 5.5 ± 0.6 µM | – | 16 µM | 93 ± 4.4% | 33.3 ± 2.83 µM | 97.3 ± 3.3% | 94.9 ± 4% | 95 ± 4.4% | 84.6 ± 6.7% | 69.5 ± 6.4% | 43.4 ± 4.2% | 14.1 ± 3.5%
C(=C\c1nc(-c2ccccc2)no1)/c1cccnc1 [Compound 15, (E)-3-phenyl-5-[2-pyridyn-3-yl-vinyl]-1,2,4-oxadiazole] | – | – | < 20 µM | 27.6 ± 5.8 µM | – | > 100 µM | 0.68 | 18.7 ± 3.9 µM | – | – | – | 52.2 ± 4.51 µM | 94.5 ± 9.1% | 92.7 ± 4.1% | 86.3 ± 7.5% | 90.2 ± 10.7% | 77.7 ± 4.8% | 63.1 ± 5.8% | 29.5 ± 1.6%
COc1cc(-c2noc(/C=C/c3ccc4c(c3)OCO4)n2)cc(OC)c1OC [Compound 24, (E)-3-(3,4,5-trimethoxyphenyl)-5-[2-(3,4-methylenedioxy-phenyl)vinyl]-1,2,4-oxadiazole] | 24.8 ± 10.4 µM | 2.3 | < 20 µM | 60.4 ± 4.1 µM | 55.9 ± 9.3% | 53.4 ± 2.6 µM | 0.15 | 8.9 ± 0.3 µM | 72.8 ± 4.2% | – | – | – | – | – | – | – | – | – | –
